# Reference: patent US20100048503A1, “COMPOSITION FOR TREATMENT OF PANCREATIC CANCER” (Eisai R & D Management Co., Ltd., priority 2007, published 2010)
# Structures can show the parent of a compound that is named as a salt.
# Legend:
# [1] = system: Human pancreatic cancer cell line AsPC-1; assay: Combination use with gemcitabine hydrochloride in subcutaneous transplanted (xenograft) model in nude mouse; format: in vivo; conditions: AsPC-1 xenograft; for Relative tumor volume on Day 29 Average ± standard deviation: nude mouse
# Description: Human pancreatic cancer cell line AsPC-1 (purchased from ATCC) was cultured in RPMI1640 (containing 10% FBS) in a 5% carbon dioxide gas incubator at 37° C. to about 80% confluence, and then the cells were collected with trypsin-EDTA. A 5×10^7 cells/mL suspension was prepared with a phosphate buffer, and each 0.1 mL of the resulting cell suspension was subcutaneously transplanted to a nude mouse at the side of its body. Eleven days after the transplantation, 4-(3-chloro-4-(cyclopropylaminocarbonyl)aminophenoxy)-7-methoxy-6-quinolinecarboxamide (3, 10 or 30 mg/kg, once a day for four weeks, oral) and gemcitabine hydrochloride (purchased from Eli Lilly Japan) (200 mg/kg, four times every three days, intravenous) were administered alone or in combination. The major and minor axes of tumors were measured with Digimatic caliper (Mitsutoyo Corporation), and tumor volumes and relative tumor volumes were calculated according to the following formulae: […] Relative Tumor Volume (RTV)=Tumor volume on measurement day/Tumor volume on the first administration day. […] The first day of administration was considered Day 1.
# [2] = system: Human pancreatic cancer cell line AsPC-1; assay: Combination use with erlotinib hydrochloride in subcutaneous transplanted (xenograft) model in nude mouse; format: in vivo; conditions: oral, AsPC-1 xenograft; for Relative tumor volume on Day 29 Average ± standard deviation: once a day for four weeks, nude mouse
# Description: Human pancreatic cancer cell line AsPC-1 (purchased from ATCC) was cultured in RPMI1640 (containing 10% FBS) in a 5% carbon dioxide gas incubator at 37° C. to about 80% confluence, and then the cells were collected with trypsin-EDTA. A 5×10^7 cells/mL suspension was prepared with a phosphate buffer, and each 0.11 mL of the resulting cell suspension was subcutaneously transplanted to a nude mouse at the side of its body. Ten days after the transplantation, 4-(3-chloro-4-(cyclopropylaminocarbonyl)aminophenoxy)-7-methoxy-6-quinolinecarboxamide (10 mg/kg, once a day for four weeks) and erlotinib hydrochloride (50 mg/kg, once a day for four weeks) were orally administered alone or in combination. The major and minor axes of tumors were measured with Digimatic caliper (Mitsutoyo Corporation), and tumor volumes and relative tumor volumes were calculated according to the following formulae: […] Relative Tumor Volume (RTV)=Tumor volume on measurement day/Tumor volume on the first administration day. […] The first day of administration was considered Day 1.
# [3] = Compound A 10 mg/kg in combination with erlotinib hydrochloride 50 mg/kg
# [4] = Compound A 3, 10 or 30 mg/kg oral in combination with gemcitabine hydrochloride 200 mg/kg intravenous
compound,measurement,setting,value
"Nc1ccn([C@@H]2O[C@H](CO)C(O)C2(F)F)c(=O)n1 (single isomer, unassigned; (+)) [Gemcitabine hydrochloride, (+)-2′-deoxy-2′,2′-difluorocytidene, reference compound]",Relative tumor volume on Day 29 Average ± standard deviation,"[1]; Gemcitabine hydrochloride 200 mg/kg alone, four times every three days, intravenous",3.41 ± 0.41
"COc1cc2nccc(Oc3ccc(NC(=O)NC4CC4)c(Cl)c3)c2cc1C(N)=O [Compound A, 4-(3-chloro-4-(cyclopropylaminocarbonyl)aminophenoxy)-7-methoxy-6-quinolinecarboxamide]",Relative tumor volume on Day 29 Average ± standard deviation,[2]; Compound A 10 mg/kg alone,1.84 ± 1.31
same,Anti-tumor effect of combination use compared with either agent alone,[2]; [3],superior anti-tumor effect
same,Effect when used in combination with erlotinib hydrochloride,[2]; [3],additive effect
same,Relative tumor volume on Day 29 Average ± standard deviation,"[1]; Compound A 3 mg/kg alone, once a day for four weeks, oral",2.10 ± 0.64
same,Relative tumor volume on Day 29 Average ± standard deviation,"[1]; Compound A 10 mg/kg alone, once a day for four weeks, oral",1.79 ± 0.56
same,Relative tumor volume on Day 29 Average ± standard deviation,"[1]; Compound A 30 mg/kg alone, once a day for four weeks, oral",0.88 ± 0.27
same,Anti-tumor effect of combination use compared with either agent alone,[1]; [4],superior anti-tumor effect
same,Effect when used in combination with gemcitabine hydrochloride,[1]; [4],additive effect
"C#Cc1cccc(Nc2ncnc3cc(OCCOC)c(OCCOC)cc23)c1 [Erlotinib hydrochloride, 4-(3-ethynylphenylamino)-6,7-bis(2-methoxyethoxy)-quinazoline, reference compound]",Relative tumor volume on Day 29 Average ± standard deviation,[2]; Erlotinib hydrochloride 50 mg/kg alone,4.54 ± 0.18
